# Source: ChEMBL document CHEMBL5634090, “Design of phenothiazine-based cationic amphiphilic derivatives incorporating arginine residues: Potential membrane-active broad-spectrum antimicrobials combating pathogenic bacteria in vitro and in vivo” (Eur J Med Chem, 2023)
# The source made the active and inactive calls. The rule behind the calls is not given here.
# Legend:
# Klebsiella pneumoniae [1] = test: Antibiofilm activity against 24 hrs preformed biofilm in Klebsiella pneumoniae ATCC 10031 assessed as reduction in biofilm viability at […] ug/ml relative to control; format: functional; conditions: dose […] microg/ml; 1.56 ug/mL
# Staphylococcus aureus [2] = test: Antibacterial activity against methicillin resistant Staphylococcus aureus NCTC 10442 in presence of 19 umol/L Zn2+ by broth microdilution method; format: functional
# Staphylococcus aureus [3] = test: Antibacterial activity against methicillin resistant Staphylococcus aureus N315 in presence of 19 umol/L Zn2+ by broth microdilution method; format: functional
# Klebsiella pneumoniae [4] = test: Inhibition of biofilm formation in Klebsiella pneumoniae ATCC 10031 by crystal violet staining assay; format: functional, organism-based; conditions: dose 0.78-25 µg/ml
# [5] = Cytotoxicity against HEK293 cells assessed as cell survival rate at 12.5 ug/ml by CCK-8 assay relative to control; format: toxicity, cell-based; conditions: human, at 12.5 µg/mL, read-out: Activity
# Escherichia coli [6] = test: Antibacterial activity against Escherichia coli ATCC 25922 in presence of 140 mmol/L Na+ by broth microdilution method; format: functional
# Pseudomonas aeruginosa [7] = test: Antibacterial activity against Pseudomonas aeruginosa ATCC 9027 infected in cyclophosphamide immunosuppressed keratitis mouse model assessed as log reduction in number of viable bacterial colonies at 10 mg/ml administrated tropically; format: functional
# Staphylococcus aureus [8] = test: Antibacterial activity against Staphylococcus aureus ATCC 29213 assessed as loss in membrane integrity at 8 times MIC incubated for 4 hrs by LIVE/DEAD BacLight bacterial viability assay; format: functional, organism-based; conditions: Cell membrane
# Pseudomonas aeruginosa [9] = test: Antibacterial activity against Pseudomonas aeruginosa ATCC 9027 in presence of 2.50 mmol/L Ca2+ by broth microdilution method; format: functional
# Staphylococcus aureus [10] = test: Inhibition of biofilm formation in Staphylococcus aureus ATCC 29213 at 12.5 ug/ml by crystal violet staining assay relative to control; format: functional
# Klebsiella pneumoniae [11] = test: Antibacterial activity against Klebsiella pneumoniae ATCC 10031 assessed as log reduction in bacterial load at 8 times MIC measured after 2 hrs by time kill assay; format: functional
# Klebsiella pneumoniae [12] = test: Antibacterial activity against Klebsiella pneumoniae ATCC 10031 assessed as reduction in bacterial load at 8 times MIC measured after 2 hrs by time kill assay relative to control; format: functional; parameters: scale not given: the % may be the effect or the level left
# Escherichia coli [13] = test: Antibacterial activity against Escherichia coli ATCC 25922 in presence of 1 mmol/L Mg2+ by broth microdilution method; format: functional
# [14] = Cytotoxicity against mouse NCTC clone 929 cells assessed as cell survival rate at 12.5 ug/ml by CCK-8 assay relative to control; format: toxicity, cell-based; conditions: NCTC clone 929 (L929) cells, at 12.5 µg/mL, read-out: Activity
# [15] = Cytotoxicity against mouse NCTC clone 929 cells assessed as cell survival rate at 50 ug/ml by CCK-8 assay relative to control; format: toxicity, cell-based; conditions: NCTC clone 929 (L929) cells, at 50 µg/mL, read-out: Activity
# Klebsiella pneumoniae [16] = test: Antibacterial activity against Klebsiella pneumoniae ATCC 10031 assessed as reduction in bacterial load at 4 times MIC measured after 2 hrs by time kill assay relative to control; format: functional; parameters: scale not given: the % may be the effect or the level left
# [17] = Selectivity index, ratio of CC50 for cytotoxicity against mouse NCTC clone 929 cells to MIC for antibacterial activity against methicillin resistant Staphylococcus aureus NCTC 10442; format: toxicity, cell-based; conditions: read-out: Selectivity Index
# Klebsiella pneumoniae [18] = test: Antibacterial activity against Klebsiella pneumoniae ATCC 10031 assessed as log reduction in bacterial load at 4 times MIC measured after 2 hrs by time kill assay; format: functional
# Klebsiella pneumoniae [19] = test: Antibacterial activity against Klebsiella pneumoniae ATCC 10031 assessed as loss in cell viability at 8 times MIC incubated for 4 hrs by LIVE/DEAD BacLight bacterial viability assay; format: functional, organism-based; conditions: Cell membrane
# Klebsiella pneumoniae [20] = test: Antibacterial activity against Klebsiella pneumoniae ATCC 14581 in presence of 19 umol/L Fe2+ by broth microdilution method; format: functional
# Klebsiella pneumoniae [21] = test: Antibacterial activity against Klebsiella pneumoniae ATCC 14581 in presence of 19 umol/L Zn2+ by broth microdilution method; format: functional
# [22] = Selectivity index, ratio of CC50 for cytotoxicity against mouse NCTC clone 929 cells to MIC for antibacterial activity against Staphylococcus aureus ATCC 29213; format: toxicity, cell-based; conditions: read-out: Selectivity Index
# Staphylococcus aureus [23] = test: Antibacterial activity against methicillin resistant Staphylococcus aureus NCTC 10442 in presence of 4.5 mmol/L K+ by broth microdilution method; format: functional
# Staphylococcus aureus [24] = test: Antibacterial activity against Staphylococcus aureus ATCC 29213 by microbroth dilution assay; format: functional
# Pseudomonas aeruginosa [25] = test: Antibacterial activity against Pseudomonas aeruginosa ATCC 9027 in presence of 20 umol/L Fe3+ by broth microdilution method; format: functional
# Klebsiella pneumoniae [26] = test: Antibacterial activity against Klebsiella pneumoniae ATCC 10031 by microbroth dilution assay; format: functional
# Staphylococcus aureus [27] = test: Antibacterial activity against Staphylococcus aureus ATCC 29213 in presence of 20 umol/L Fe2+ by broth microdilution method; format: functional
# Staphylococcus aureus [28] = test: Antibacterial activity against methicillin resistant Staphylococcus aureus NCTC 10442 in presence of 1 mmol/L Mg2+ by broth microdilution method; format: functional
# Escherichia coli [29] = test: Antibacterial activity against Escherichia coli ATCC 25922 in presence of 20 umol/L Fe2+ by broth microdilution method; format: functional
# Staphylococcus aureus [30] = test: Antibacterial activity against Staphylococcus aureus ATCC 29213 in presence of 20 umol/L Fe3+ by broth microdilution method; format: functional
# Klebsiella pneumoniae [31] = test: Antibacterial activity against Klebsiella pneumoniae ATCC 14581 in presence of 20 umol/L Fe3+ by broth microdilution method; format: functional
# Klebsiella pneumoniae [32] = test: Antibacterial activity against Klebsiella pneumoniae ATCC 10031 in presence of 19 umol/L Fe2+ by broth microdilution method; format: functional
# Pseudomonas aeruginosa [33] = test: Antibacterial activity against Pseudomonas aeruginosa ATCC 9027 in presence of 140 mmol/L Na+ by broth microdilution method; format: functional
# Staphylococcus aureus [34] = test: Antibacterial activity against methicillin resistant Staphylococcus aureus N315 in presence of 4.5 mmol/L K+ by broth microdilution method; format: functional
# Klebsiella pneumoniae [35] = test: Antibacterial activity against Klebsiella pneumoniae ATCC 10031 assessed as loss in membrane integrity at 8 times MIC incubated for 4 hrs by LIVE/DEAD BacLight bacterial viability assay; format: functional, organism-based; conditions: Cell membrane
# [36] = Selectivity index, ratio of CC50 for cytotoxicity against HEK293 cells to MIC for antibacterial activity against Klebsiella pneumoniae ATCC 14581; format: toxicity, cell-based; conditions: human, read-out: Selectivity Index
# Klebsiella pneumoniae [37] = test: Antibiofilm activity against 24 hrs preformed biofilm in Klebsiella pneumoniae ATCC 10031 assessed as reduction in biofilm viability at 6.25 ug/ml relative to control; format: functional; conditions: dose 6.25 µg/ml
# Staphylococcus aureus [38] = test: Antibacterial activity against Staphylococcus aureus ATCC 29213 in presence of 140 mmol/L Na+ by broth microdilution method; format: functional
# Pseudomonas aeruginosa [39] = test: Antibacterial activity against Pseudomonas aeruginosa ATCC 9027 infected in cyclophosphamide immunosuppressed keratitis mouse model assessed as reduction in corneal injury at 10 mg/ml administrated tropically; format: functional, organism-based
# Staphylococcus aureus [40] = test: Antibacterial activity against Staphylococcus aureus ATCC 29213 assessed as log reduction in bacterial load at 8 times MIC measured after 2 hrs by time kill assay; format: functional
# Klebsiella pneumoniae [41] = test: Antibacterial activity against Klebsiella pneumoniae ATCC 10031 in presence of 140 mmol/L Na+ by broth microdilution method; format: functional
smiles,measurement,setting,value
CCCCCCCN1c2ccccc2Sc2ccc(OCC(=O)N[C@@H](CCCNC(=N)N)C(=O)N[C@@H](CCCNC(=N)N)C(N)=O)cc21,Activity,Klebsiella pneumoniae [1],73.4%
same,MIC,Staphylococcus aureus [2],1.56 µg/mL
same,MIC,Staphylococcus aureus [3],1.56 µg/mL
same,inhibition,Klebsiella pneumoniae [4],Dose-Dependent Effect
same,viability at 12.5 ug/ml,[5],80.6%
same,MIC,Escherichia coli [6],3.12 µg/mL
same,log(activity),Pseudomonas aeruginosa [7],5.93
same,Activity,Staphylococcus aureus [8],Active
same,MIC,Pseudomonas aeruginosa [9],6.25 µg/mL
same,inhibition at 12.5 µg/mL,Staphylococcus aureus [10],96.7%
same,log(activity),Klebsiella pneumoniae [11],>3
same,Activity,Klebsiella pneumoniae [12],>99.9%
same,MIC,Escherichia coli [13],3.12 µg/mL
same,viability at 12.5 ug/ml,[14],70.8%
same,viability at 50 ug/ml,[15],68.1%
same,Activity,Klebsiella pneumoniae [16],>99.9%
same,selectivity ratio,[17],8
same,log(activity),Klebsiella pneumoniae [18],>3
same,Activity,Klebsiella pneumoniae [19],Active
same,MIC,Klebsiella pneumoniae [20],3.12 µg/mL
same,MIC,Klebsiella pneumoniae [21],3.12 µg/mL
same,selectivity ratio,[22],8
same,MIC,Staphylococcus aureus [23],1.56 µg/mL
same,MIC,Staphylococcus aureus [24],1.56 µg/mL
same,MIC,Pseudomonas aeruginosa [25],6.25 µg/mL
same,MIC,Klebsiella pneumoniae [26],3.12 µg/mL
same,MIC,Staphylococcus aureus [27],1.56 µg/mL
same,MIC,Staphylococcus aureus [28],3.12 µg/mL
same,MIC,Escherichia coli [29],3.12 µg/mL
same,MIC,Staphylococcus aureus [30],1.56 µg/mL
same,MIC,Klebsiella pneumoniae [31],6.25 µg/mL
same,MIC,Klebsiella pneumoniae [32],6.25 µg/mL
same,MIC,Pseudomonas aeruginosa [33],6.25 µg/mL
same,MIC,Staphylococcus aureus [34],1.56 µg/mL
same,Activity,Klebsiella pneumoniae [35],Active
same,selectivity ratio,[36],8
same,Activity,Klebsiella pneumoniae [37],10.44%
same,MIC,Staphylococcus aureus [38],1.56 µg/mL
same,Activity,Pseudomonas aeruginosa [39],inactive
same,log(activity),Staphylococcus aureus [40],>3
same,MIC,Klebsiella pneumoniae [41],3.12 µg/mL
